Here are results for 6 compounds from patent US20260083864A1, “CONTRAST AGENTS FOR USE IN DIAGNOSTIC COMPUTED TOMOGRAPHY IMAGING” (Bayer Aktiengesellschaft, priority 2022, published 2026).

The target of data set [1] is T1, OATP1B1 (Homo sapiens, UniProt Q9Y6L6).
T1 sequence (Q9Y6L6 1-691): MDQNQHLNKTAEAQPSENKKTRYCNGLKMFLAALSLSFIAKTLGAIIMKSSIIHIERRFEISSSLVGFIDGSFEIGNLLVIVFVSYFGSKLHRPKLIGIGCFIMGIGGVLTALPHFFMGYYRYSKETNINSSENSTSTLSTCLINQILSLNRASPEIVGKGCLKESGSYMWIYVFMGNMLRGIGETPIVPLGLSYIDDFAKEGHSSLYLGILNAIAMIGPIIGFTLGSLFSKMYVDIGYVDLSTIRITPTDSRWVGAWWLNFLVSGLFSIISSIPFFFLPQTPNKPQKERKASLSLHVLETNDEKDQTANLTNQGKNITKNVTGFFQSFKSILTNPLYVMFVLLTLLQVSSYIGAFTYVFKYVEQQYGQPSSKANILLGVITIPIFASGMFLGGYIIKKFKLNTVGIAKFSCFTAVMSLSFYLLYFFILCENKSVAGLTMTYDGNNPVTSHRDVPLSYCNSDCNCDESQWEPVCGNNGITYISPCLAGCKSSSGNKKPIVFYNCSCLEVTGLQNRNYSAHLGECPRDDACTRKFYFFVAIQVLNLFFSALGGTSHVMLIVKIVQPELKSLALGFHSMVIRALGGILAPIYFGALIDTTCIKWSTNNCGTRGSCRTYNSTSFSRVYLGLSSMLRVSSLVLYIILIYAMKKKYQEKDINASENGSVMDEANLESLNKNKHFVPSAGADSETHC
The data set is described as follows: Uptake into stable transfected OATP1B1 HEK 293 cells. Format: cell-based. As to conditions: for Uptake into OATP1B1-HEK 293 cells: 40 min incubation, relative to RC1 (Gd-EOB-DTPA); for Inhibition Rifampicine: uptake into OATP1B1-HEK 293 cells. In a few lines: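 Stably transfected OATP1B1 HEK293 cells incubated 40 min without shaking with test item at 100 µM final in transport buffer, in triplicate. Cells then washed with cold PBS; gadoxetate run on the same plate as reference.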

Data set [2] is described as follows: Water solubility in aqueous buffer. As to conditions: aqueous buffer 10 mM Tris-HCl, pH 7.4, 20° C. How it is done: The solid compounds were added stepwise to the buffer solution. More substance is added once all the suspended material is dissolved until an equilibrium between undissolved and dissolved substance is reached. The suspension was mixed using a shaker (Heidolph Reax 2000) and treated 5 min in an ultrasound bath (Bandelin, Sonorex Super RK255H).

Data set [3] in a line: Relaxivity measurements at 1.41 T in human plasma. It counts as physicochemical. Conditions: 37° C., normalized to Gd. The gist of the method:
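T1 determined by inversion recovery (8 inversion-time steps) and T2 by CPMG sequence, both with relaxation delay ≥5×T1. Each relaxivity used three Gd concentrations between 0.05 and 2 mM. Relaxivities were derived from relaxation rates measured in water and plasma.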

Data set [4] in a line: Partition coefficient (log P butanol/buffer). Conditions: 1-butanol / 50 mM Tris-HCl, pH 7.4, room temperature. Format: physicochemical.
Data set [5] has as its target T2, OATP1B3 (Homo sapiens, UniProt Q9NPD5).
T2 sequence (Q9NPD5 1-702): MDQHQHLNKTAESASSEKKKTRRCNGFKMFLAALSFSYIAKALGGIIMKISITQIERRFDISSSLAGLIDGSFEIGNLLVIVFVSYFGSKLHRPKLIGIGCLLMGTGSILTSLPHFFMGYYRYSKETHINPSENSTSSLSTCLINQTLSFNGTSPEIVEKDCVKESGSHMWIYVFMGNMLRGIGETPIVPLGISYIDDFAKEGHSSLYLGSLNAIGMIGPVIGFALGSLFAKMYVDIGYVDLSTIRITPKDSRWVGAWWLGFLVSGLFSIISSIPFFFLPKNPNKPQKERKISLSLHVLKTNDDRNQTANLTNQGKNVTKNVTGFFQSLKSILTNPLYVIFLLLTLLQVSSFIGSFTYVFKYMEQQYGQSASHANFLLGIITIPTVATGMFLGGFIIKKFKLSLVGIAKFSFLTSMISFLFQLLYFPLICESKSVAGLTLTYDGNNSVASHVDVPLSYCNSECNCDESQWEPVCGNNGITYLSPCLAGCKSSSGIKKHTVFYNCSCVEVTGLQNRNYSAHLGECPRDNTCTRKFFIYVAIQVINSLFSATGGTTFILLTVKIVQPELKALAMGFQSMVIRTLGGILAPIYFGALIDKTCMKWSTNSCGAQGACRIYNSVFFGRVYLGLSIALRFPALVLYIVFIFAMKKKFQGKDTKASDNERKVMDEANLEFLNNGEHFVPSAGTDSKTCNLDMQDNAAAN
In words: Uptake into stable transfected OATP1B3 HEK 293 cells. Format: cell-based. Conditions: for Uptake into OATP1B3-HEK 293 cells: 40 min incubation, relative to RC1 (Gd-EOB-DTPA); for Inhibition Rifampicine: uptake into OATP1B3-HEK 293 cells. The gist of the method: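 HEK 293 cells stably transfected with human OATP1B3 were incubated for 40 min with test items at 100 μM final in transport buffer, in triplicate, then washed with cold PBS. Gadoxetate (Gd-EOB-DTPA) served as the reference standard on the same plate.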

The subject of data set [6] is freshly isolated rat hepatocytes. In words: Uptake into freshly isolated rat hepatocytes. As to conditions: for Uptake rat hepatocytes: 100 μmol Gd/L, 10 min, 37° C., relative to RC1 (Gd-EOB-DTPA); for Inhibition Rifampicine: rat hepatocyte uptake, test item and Rifampicine 1:1, each 100 μM.
Description: After incubation the adherent hepatocytes were washed once with 37° C. Hepes carbonate transport buffer (500 μL/well). The test items and RC1 were prepared from stock solutions (180 to 500 mM concentration) in Hepes carbonate transport buffer at pH 7.4 to reach a final concentration of 100 μmol Gd/L. The specific uptake of the test item or RC1 into rat hepatocytes via OATP1B1 and OATP1B3 was challenged using a known OATP1B1/1B3 inhibitor (Rifampicine, Fa. Sigma R3501, test item and inhibitor 1:1 each 100 μM final concentration). The prepared rat hepatocyte plates were incubated with test solutions (500 μL/well) at 37° C. for 10 min using a thermoshaker (Fa. Grant Bio, PHMP). Triplicates were performed for each test item. After incubating the cells were washed once with cold PBS buffer (Fa. Gibco, Dulbeccos PBS (+)). After washing the intact hepatocytes were lysed by addition of 500 μL cold 0.01% Triton-X 100 in Millipore water for 1 h. […] As a reference standard RC1 is used in the same well plate. The hepatocyte uptake of the test compound is calculated relative to RC1 (resulting in the unit % of RC1).
Data set [7] is described as follows: Relaxivity measurements at 1.41 T in water. It counts as physicochemical. As to conditions: 37° C., normalized to Gd. The gist of the method:
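T1 by inversion recovery and T2 by CPMG at 1.41 T (60 MHz), 37° C, relaxation delay ≥5×T1. Three Gd concentrations between 0.05 and 2 mM; relaxivities derived from measured relaxation rates in water.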

Each structure is given as a SMILES string.

A word on the Solubility: it is how much of the substance goes into solution per volume. Consider `CCCC(C(=O)[O-])N1CCN(CC(=O)[O-])CCN(C(Cc2ccc(OCC)cc2)C(=O)O)CCN(CC(=O)[O-])CC1.[Gd+3]` (stereo not drawn) [Example 30, gadolinium 2-{7-[1-carboxy-2-(4-ethoxyphenyl)ethyl]-4,10-bis(carboxylatomethyl)-1,4,7,10-tetraazacyclododecan-1-yl}pentanoate], for which, in data set [1], the “Uptake into OATP1B1-HEK 293 cells” value is 169 % of RC1 and the “Inhibition Rifampicine” value is 90 % inhibition. This compound registered a Solubility in data set [2] greater than 35 mM. The r1 human plasma in data set [3] is 7.6 L/mmol/s. Also, in data set [4], the “Log P (partition coefficient butanol/buffer)” value is −0.60. In addition, in data set [5], the “Uptake into OATP1B3-HEK 293 cells” value is listed as 62 % of RC1 and the “Inhibition Rifampicine” value amounted to 98 % inhibition. In addition, in data set [6], the Uptake rat hepatocytes is reported as 75 % of RC1 and the “Inhibition Rifampicine” value was found to be 99 % inhibition. This compound yielded a r1 water in data set [7] of 4.7 L/mmol/s.

As for `CCOCCOc1ccc(CC(C(=O)O)N2CCN(CC(=O)[O-])CCN(CC(=O)[O-])CCN(CC(=O)[O-])CC2)cc1.[Gd+3]` (stereo not drawn) [Example 32, gadolinium 2,2′,2″-(10-{1-carboxy-2-[4-(2-ethoxyethoxy)phenyl]ethyl}-1,4,7,10-tetraazacyclododecane-1,4,7-triyl)triacetate], in data set [1], the “Uptake into OATP1B1-HEK 293 cells” value was 147 % of RC1 and the “Inhibition Rifampicine” value is 72 % inhibition. For the same compound, the Solubility in data set [2] was greater than 198 mM. Also, the r1 human plasma in data set [3] came out at 6.6 L/mmol/s. Also, the “Log P (partition coefficient butanol/buffer)” value in data set [4] is −1.53. In data set [5], the “Uptake into OATP1B3-HEK 293 cells” value is 22 % of RC1 and the “Inhibition Rifampicine” value came to 94 % inhibition. Further, in data set [6], the Uptake rat hepatocytes was 54 % of RC1 and the “Inhibition Rifampicine” value is given as 93 % inhibition. The compound also came in with a r1 water in data set [7] of 4.1 L/mmol/s.

Turning to `CCOCCOCCOc1cc(CC(C(=O)O)N2CCN(CC(=O)[O-])CCN(CC(=O)[O-])CCN(CC(=O)[O-])CC2)cc(OCCOCCOCC)c1.[Gd+3]` (stereo not drawn) [Example 39, gadolinium 2,2′,2″-{10-[2-{3,5-bis[2-(2-ethoxyethoxy)ethoxy]phenyl}-1-carboxyethyl]-1,4,7,10-tetraazacyclododecane-1,4,7-triyl}triacetate], in data set [1], the “Uptake into OATP1B1-HEK 293 cells” value is 59 % of RC1 and the “Inhibition Rifampicine” value turned out to be 12 % inhibition. In data set [2], this compound showed a Solubility greater than 255 mM. Also, the r1 human plasma in data set [3] was 7.8 L/mmol/s. Also, in data set [4], the “Log P (partition coefficient butanol/buffer)” value was −1.32. Also, in data set [5], the “Uptake into OATP1B3-HEK 293 cells” value was 26 % of RC1 and the “Inhibition Rifampicine” value turned out to be 88 % inhibition. Besides, in data set [6], the Uptake rat hepatocytes is reported as 17 % of RC1 and the “Inhibition Rifampicine” value is 64 % inhibition. In data set [7], this compound displayed a r1 water of 4.8 L/mmol/s.

In the case of `CCOCCOCCOc1ccc(CC(C(=O)O)N2CCN(CC(=O)[O-])CCN(C(CO)C(=O)[O-])CCN(CC(=O)[O-])CC2)cc1.[Gd+3]` (stereo not drawn) [Example 41, gadolinium-2-{7-[1-carboxy-2-{4-[2-(2-ethoxyethoxy)ethoxy]phenyl}ethyl]-4,10-bis(carboxylatomethyl)-1,4,7,10-tetraazacyclododecan-1-yl}-3-hydroxypropanoate], in data set [1], the “Uptake into OATP1B1-HEK 293 cells” value was 218 % of RC1 and the “Inhibition Rifampicine” value amounted to 30 % inhibition. The Solubility in data set [2] is greater than 13 mM. In data set [3], the r1 human plasma was found to be 5.7 L/mmol/s. In data set [4], the “Log P (partition coefficient butanol/buffer)” value is reported as −1.61. For the same compound, in data set [5], the “Uptake into OATP1B3-HEK 293 cells” value is reported as 47 % of RC1 and the “Inhibition Rifampicine” value is reported as 74 % inhibition. Also, in data set [6], the Uptake rat hepatocytes was 52 % of RC1 and the “Inhibition Rifampicine” value amounted to 56 % inhibition. Besides, the r1 water in data set [7] turned out to be 4.5 L/mmol/s.

In the case of `CCOCCOCCOCCOc1ccc(CC(C(=O)O)N2CCN(CC(=O)[O-])CCN(C(CO)C(=O)[O-])CCN(CC(=O)[O-])CC2)cc1.[Gd+3]` (stereo not drawn) [Example 42, gadolinium-2-{7-[1-carboxy-2-(4-{2-[2-(2-ethoxyethoxy)ethoxy]ethoxy}phenyl)ethyl]-4,10-bis(carboxylatomethyl)-1,4,7,10-tetraazacyclododecan-1-yl}-3-hydroxypropanoate], in data set [1], the “Uptake into OATP1B1-HEK 293 cells” value was 89 % of RC1 and the “Inhibition Rifampicine” value is 62 % inhibition. In data set [2], the Solubility was greater than 81 mM. In data set [3], this compound showed a r1 human plasma of 7.2 L/mmol/s. Besides, the “Log P (partition coefficient butanol/buffer)” value in data set [4] is −1.60. In data set [5], the “Uptake into OATP1B3-HEK 293 cells” value was 20 % of RC1 and the “Inhibition Rifampicine” value is recorded as 91 % inhibition. In addition, in data set [6], the Uptake rat hepatocytes is given as 44 % of RC1 and the “Inhibition Rifampicine” value came out at 95 % inhibition. In data set [7], this compound yielded a r1 water of 5.0 L/mmol/s.

For the compound `O=C([O-])CN1CCN(CC(=O)[O-])CCN([C@H](Cc2ccc(OCC(F)(F)F)cc2)C(=O)O)CCN(CC(=O)[O-])CC1.[Gd+3]` [Example 47, gadolinium 2,2′,2″-(10-{(1R)-1-carboxy-2-[4-(2,2,2-trifluoroethoxy)phenyl]ethyl}-1,4,7,10-tetraazacyclododecane-1,4,7-triyl)triacetate], in data set [1], the “Uptake into OATP1B1-HEK 293 cells” value is 13 % of RC1 and the “Inhibition Rifampicine” value was determined as 93 % inhibition. The compound also came in with a Solubility in data set [2] greater than 229 mM. Moreover, the r1 human plasma in data set [3] turned out to be 7.8 L/mmol/s. In addition, the “Log P (partition coefficient butanol/buffer)” value in data set [4] is given as −0.77. Moreover, in data set [5], the “Uptake into OATP1B3-HEK 293 cells” value is recorded as 19 % of RC1 and the “Inhibition Rifampicine” value turned out to be 90 % inhibition. In addition, in data set [6], the Uptake rat hepatocytes is given as 55 % of RC1 and the “Inhibition Rifampicine” value is on record as 82 % inhibition. The same compound registered a r1 water in data set [7] of 3.7 L/mmol/s.
